Among the data in patent US10035804B2, “Spirodiamine derivatives as aldosterone synthase inhibitors” (Hoffmann-La Roche Inc., priority 2014, dated 2018) are EC50 values, retold here.

The pEC50 is the EC50 on a negative log10 scale, so that one unit is a factor of ten. A high value points to a small EC50.

One test deals with human CYP11B2 (Homo sapiens (Human), UniProt P19099). Kind of test: G-402 cellular enzyme assay, human CYP11B2 (aldosterone release). Conditions: G-402 cells expressing human CYP11B2; 1 μM Deoxycorticosterone; aldosterone in supernatant after 16 h. Format: cell-based. From the text: (§1) Herein we identified the use of the G-402 cell line as a host cell to ectopically express (transiently or stably) enzymes of the CYP11 family. Specifically we developed stable G-402 cells expressing ectopically human CYP11B1, human CYP11B2, human CYP11A1, cynmolgus CYP11B1 or cynomolgus CYP11B2 enzyme activity. Importantly the identified cell line G-402 expresses co-factors (adrenodoxin and adrenodoxin reductase) important for the activity of the CYP11 family and no relevant enzyme activity of the CYP11 family (in comparison to H295R cells) was detected in these cells. Therefore the G-402 cell line is uniquely suited as a host cell for the ectopic expression of enzymes from the CYP11 family.
(§2) G-402 cells can be obtained from ATCC (CRL-1440) and were originally derived from a renal leiomyoblastoma.
(§3) The expression plasmids contains the ORF for either human/cyno CYP11B1 or CYP11B2 under the control of a suitable promoter (CMV-promoter) and a suitable resistance marker (neomycin). Using standard techniques the expression plasmid is transfected into G-402 cells and these cells are then selected for expressing the given resistance markers. Individual cell-clones are then selected and assessed for displaying the desired enzymatic activity using 11-Deoxycorticosterone (Cyp11B2) or 11-Deoxycortisol (Cyp11B1) as a substrate.
(§4) G-402 cells expressing CYP11 constructs were established as described above and maintained in McCoy's 5a Medium Modified, ATCC Catalog No. 30-2007 containing 10% FCS and 400 μg/ml G418 (Geneticin) at 37° C. under an atmosphere of 5% CO2/95% air. Cellular enzyme assays were performed in DMEM/F12 medium containing 2.5% charcoal treated FCS and appropriate concentration of substrate (0.3-10 uM 11-Deoxycorticosterone, 11-Deoxycortisol or Corticosterone). For assaying enzymatic activity, cells were plated onto 96 well plates and incubated for 16 h. An aliquot of the supernatant is then transferred and analyzed for the concentration of the expected product (Aldosterone for CYP11B2; Cortisol for CYP11B1). The concentrations of these steroids can be determined using HTRF assays from CisBio analyzing either Aldosterone or Cortisol.
(§5) Inhibition of the release of produced steroids can be used as a measure of the respective enzyme inhibition by test compounds added during the cellular enzyme assay. The dose dependent inhibition of enzymatic activity by a compound is calculated by means of plotting added inhibitor concentrations (x-axes) vs. measured steroid/product level (y-axes). The inhibition is then calculated by fitting the following 4-parameter sigmoidal function (Morgan-Mercer-Flodin (MMF) model) to the raw data points using the least squares method:
(§6) [formula] wherein, A is the maximum y value, B is the EC50 factor determined using XLFit, C is the minimum y value and D is the slope value.
(§7) EC50 values for compounds claimed herein were tested with the G402-based assay system described. Cyp11B2 enzyme activity was tested in presence of 1 μM Deoxycorticosterone and variable amounts of inhibitors; Cyp11B1 enzyme activity was tested in presence of 1 μM Deoxycortisol and variable amounts of inhibitors.

Another test deals with human CYP11B1 (Homo sapiens (Human), UniProt P15538). Kind of test: G-402 cellular enzyme assay, human CYP11B1 (cortisol release). Format: cell-based. As to conditions: G-402 cells expressing human CYP11B1; 1 μM Deoxycortisol; cortisol in supernatant after 16 h.
From the text: as §1, §2, §3, §4, §5, §6, §7

pEC50: −log10 of the molar value.

Chain of human CYP11B1 (P15538 25-503): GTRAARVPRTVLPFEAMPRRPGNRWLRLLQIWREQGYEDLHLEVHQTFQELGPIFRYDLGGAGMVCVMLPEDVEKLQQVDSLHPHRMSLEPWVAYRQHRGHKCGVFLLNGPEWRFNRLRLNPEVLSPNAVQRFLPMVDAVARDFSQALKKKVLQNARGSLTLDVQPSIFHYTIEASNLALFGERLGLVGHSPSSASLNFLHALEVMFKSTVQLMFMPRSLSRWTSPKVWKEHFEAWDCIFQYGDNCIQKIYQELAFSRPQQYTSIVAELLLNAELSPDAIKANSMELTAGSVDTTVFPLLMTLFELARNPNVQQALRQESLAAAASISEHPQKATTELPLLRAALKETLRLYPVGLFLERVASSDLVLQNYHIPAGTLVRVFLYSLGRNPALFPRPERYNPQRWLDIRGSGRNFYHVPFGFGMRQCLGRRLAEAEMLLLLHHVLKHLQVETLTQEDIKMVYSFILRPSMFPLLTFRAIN
Chain of human CYP11B2 (P19099 25-503): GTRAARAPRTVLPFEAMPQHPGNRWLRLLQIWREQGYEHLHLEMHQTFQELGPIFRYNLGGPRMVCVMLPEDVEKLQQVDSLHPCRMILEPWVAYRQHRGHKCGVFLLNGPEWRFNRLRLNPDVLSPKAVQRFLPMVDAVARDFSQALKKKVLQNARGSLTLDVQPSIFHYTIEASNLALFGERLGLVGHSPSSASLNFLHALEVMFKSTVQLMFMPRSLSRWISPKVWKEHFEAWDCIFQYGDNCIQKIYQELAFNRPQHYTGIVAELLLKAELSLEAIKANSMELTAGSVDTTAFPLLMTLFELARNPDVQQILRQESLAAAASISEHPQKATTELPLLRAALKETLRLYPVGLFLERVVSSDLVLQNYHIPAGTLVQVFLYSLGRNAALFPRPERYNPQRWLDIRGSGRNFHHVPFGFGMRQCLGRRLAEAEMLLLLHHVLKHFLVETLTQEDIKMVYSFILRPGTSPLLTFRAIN

As for `Cc1ccncc1C(=O)N1CC2(C1)CN(c1cncc(N3C(=O)c4ccc(Cl)cc4C3(C)C)c1)C2` [Example 7, 5-Chloro-3,3-dimethyl-2-[5-[2-(4-methylpyridine-3-carbonyl)-2,6-diazaspiro[3.3]heptan-6-yl]-3-pyridyl]isoindolin-1-one], the figures for the pEC50 on human CYP11B2 and at human CYP11B1 were 10.86 and 7.59, respectively.
For `Cn1ccnc1C(=O)N1CC2(C1)CN(c1cncc(N3C(=O)c4ccc(Cl)cc4C3(C)C)c1)C2` [Example 4, 5-Chloro-3,3-dimethyl-2-[5-[2-(1-methylimidazole-2-carbonyl)-2,6-diazaspiro[3.3]heptan-6-yl]-3-pyridyl]isoindolin-1-one], the results for the negative-log EC50 (pEC50) on human CYP11B2 and on human CYP11B1 were 11.00 and 8.96, respectively.
With `COc1ccc2c(n1)C(C)(C)N(c1cncc(N3CC4(CN(C(=O)c5ccnn5C)C4)C3)c1)C2=O` [Example 17, 2-Methoxy-7,7-dimethyl-6-[5-[2-(2-methylpyrazole-3-carbonyl)-2,6-diazaspiro[3.3]heptan-6-yl]-3-pyridyl]pyrrolo[3,4-b]pyridin-5-one], the figures for the negative-log EC50 (pEC50) at human CYP11B2 and at human CYP11B1 were 9.05 and 7.48, respectively.
For `Cc1ccncc1C(=O)N1CC2(C1)CN(c1cncc(N3C(=O)c4ccc(Cl)cc4C34CC4)c1)C2` [Example 20, 5′-Chloro-2′-[5-[2-(4-methylpyridine-3-carbonyl)-2,6-diazaspiro[3.3]heptan-6-yl]-3-pyridyl]spiro[cyclopropane-1,3′-isoindoline]-1′-one], in that order: 10.71 and 7.70.
`COc1ccncc1C(=O)N1CC2(C1)CN(c1cncc(N3C(=O)c4ccc(Cl)cc4C3(C)C)c1)C2` [Example 24, 5-Chloro-2-[5-[2-(4-methoxypyridine-3-carbonyl)-2,6-diazaspiro[3.3]heptan-6-yl]-3-pyridyl]-3,3-dimethyl-isoindolin-1-one]: the pEC50 is 10.35 at human CYP11B2 and 7.77 at human CYP11B1.
With `Cc1ncoc1C(=O)N1CC2(C1)CN(c1cncc(N3C(=O)c4ccc(Cl)cc4C3(C)C)c1)C2` [Example 41, 5-Chloro-3,3-dimethyl-2-[5-[2-(4-methyloxazole-5-carbonyl)-2,6-diazaspiro[3.3]heptan-6-yl]-3-pyridyl]isoindolin-1-one], the pEC50 at human CYP11B2 is 9.96; at human CYP11B1, 7.55.
For the molecule `CCn1cc(C(=O)N2CC3(CCN(c4cncc(N5C(=O)c6ccc(Cl)cc6C5(C)C)c4)CC3)C2)cn1` [Example 60, 5-Chloro-2-[5-[2-(1-ethylpyrazole-4-carbonyl)-2,7-diazaspiro[3.5]nonan-7-yl]-3-pyridyl]-3,3-dimethyl-isoindolin-1-one], at human CYP11B1, the pEC50 is 9.05.
Turning to `Cc1oncc1C(=O)N1CC2(C1)CN(c1cncc(N3C(=O)c4ccc(Cl)cc4C3(C)C)c1)C2` [Example 39, 5-Chloro-3,3-dimethyl-2-[5-[2-(5-methylisoxazole-4-carbonyl)-2,6-diazaspiro[3.3]heptan-6-yl]-3-pyridyl]isoindolin-1-one], the pEC50 was 10.55 on human CYP11B2 and 8.01 at human CYP11B1.
Taken in the same sequence, the figures for `Cc1nc(C)c(C(=O)N2CC3(C2)CN(c2cncc(N4C(=O)c5ccc(Cl)cc5C4(C)C)c2)C3)o1` [Example 44, 5-Chloro-2-[5-[2-(2,4-dimethyloxazole-5-carbonyl)-2,6-diazaspiro[3.3]heptan-6-yl]-3-pyridyl]-3,3-dimethyl-isoindolin-1-one] were 10.04 and 7.75.
`Cn1cc(C(=O)N2CCC3(CC2)CN(c2cncc(N4C(=O)c5ccc(Cl)cc5C4(C)C)c2)C3)cn1` [Example 56, 5-Chloro-3,3-dimethyl-2-[5-[7-(1-methylpyrazole-4-carbonyl)-2,7-diazaspiro[3.5]nonan-2-yl]-3-pyridyl]isoindolin-1-one] gave a negative logarithm of the EC50 (pEC50) on human CYP11B1 of 7.73.
For the molecule `CC1(C)c2cc(Cl)ccc2C(=O)N1c1cncc(N2CC3(CN(C(=O)c4ncccn4)C3)C2)c1` [Example 33, 5-Chloro-3,3-dimethyl-2-[5-[2-(pyrimidine-2-carbonyl)-2,6-diazaspiro[3.3]heptan-6-yl]-3-pyridyl]isoindolin-1-one], the values for the negative-log EC50 (pEC50) on human CYP11B2 and on human CYP11B1 were 10.30 and 8.76, respectively.
For `Cn1cc(C(=O)N2CC3(C2)CN(c2cncc(N4C(=O)c5ccc(Cl)cc5C4(C)C)c2)C3)cn1` [Example 1, 5-Chloro-3,3-dimethyl-2-[5-[2-(1-methylpyrazole-4-carbonyl)-2,6-diazaspiro[3.3]-heptan-6-yl]-3-pyridyl]isoindolin-1-one], the negative-log EC50 (pEC50) is 11.70 on human CYP11B2 and 7.95 on human CYP11B1.
For `Cn1cc(C(=O)N2CC3(C2)CN(c2cncc(N4C(=O)c5ccc(C#N)cc5C4(C)C)c2)C3)cn1` [Example 8, 3,3-Dimethyl-2-[5-[2-(1-methylpyrazole-4-carbonyl)-2,6-diazaspiro[3.3]heptan-6-yl]-3-pyridyl]-1-oxo-isoindoline-5-carbonitrile], in that order: 9.95 and less than 7.52.
For `Cc1ncncc1C(=O)N1CC2(C1)CN(c1cncc(N3C(=O)c4ccc(Cl)cc4C3(C)C)c1)C2` [Example 29, 5-Chloro-3,3-dimethyl-2-[5-[2-(4-methylpyrimidine-5-carbonyl)-2,6-diazaspiro[3.3]heptan-6-yl]-3-pyridyl]isoindolin-1-one], in that order: 10.13 and less than 7.52.
Turning to `CC(C)n1cc(C(=O)N2CC3(C2)CN(c2cncc(N4C(=O)c5ccc(Cl)cc5C4(C)C)c2)C3)cn1` [Example 3, 5-Chloro-2-[5-[2-(1-isopropylpyrazole-4-carbonyl)-2,6-diazaspiro[3.3]heptan-6-yl]-3-pyridyl]-3,3-dimethyl-isoindolin-1-one], the negative-log EC50 (pEC50) on human CYP11B2 is 11.08; at human CYP11B1, 7.96.
As to `CC1(C)c2cc(Cl)ccc2C(=O)N1c1cncc(N2CC3(CN(C(=O)c4cncc(C#N)c4)C3)C2)c1` [Example 36, 5-[6-[5-(6-Chloro-1,1-dimethyl-3-oxo-isoindolin-2-yl)-3-pyridyl]-2,6-diazaspiro[3.3]heptane-2-carbonyl]pyridine-3-carbonitrile], the pEC50 was 10.34 on human CYP11B2 and 7.51 on human CYP11B1.
For the molecule `Cc1ccncc1C(=O)N1CC2(C1)CN(c1cncc(N3C(=O)c4ccc(C#N)cc4C3(C)C)c1)C2` [Example 14, 3,3-Dimethyl-2-[5-[2-(4-methylpyridine-3-carbonyl)-2,6-diazaspiro[3.3]heptan-6-yl]-3-pyridyl]-1-oxo-isoindoline-5-carbonitrile], the results for the negative logarithm of the EC50 (pEC50) on human CYP11B2 and at human CYP11B1 were 10.39 and 7.68, respectively.
For `Cc1c(C(=O)N2CC3(C2)CN(c2cncc(N4C(=O)c5ccc(Cl)cc5C4(C)C)c2)C3)cnn1C` [Example 26, 5-Chloro-2-[5-[2-(1,5-dimethylpyrazole-4-carbonyl)-2,6-diazaspiro[3.3]heptan-6-yl]-3-pyridyl]-3,3-dimethyl-isoindolin-1-one], in that order: 10.11 and 7.45.
`Cc1ccncc1C(=O)N1CC2(CCN(c3cncc(N4C(=O)c5ccc(Cl)cc5C4(C)C)c3)CC2)C1` [Example 61, 5-Chloro-3,3-dimethyl-2-[5-[2-(4-methylpyridine-3-carbonyl)-2,7-diazaspiro[3.5]nonan-7-yl]-3-pyridyl]isoindolin-1-one]: at human CYP11B1, the pEC50 is 8.68.
Turning to `Cn1cc(C(=O)N2CC3(CCN(c4cncc(N5C(=O)c6ccc(Cl)cc6C5(C)C)c4)CC3)C2)cn1` [Example 59, 5-Chloro-3,3-dimethyl-2-[5-[2-(1-methylpyrazole-4-carbonyl)-2,7-diazaspiro[3.5]nonan-7-yl]-3-pyridyl]isoindolin-1-one], the pEC50 at human CYP11B1 is 9.09.
As to `CCn1cc(C(=O)N2CCC3(CC2)CN(c2cncc(N4C(=O)c5ccc(Cl)cc5C4(C)C)c2)C3)cn1` [Example 58, 5-Chloro-2-[5-[7-(1-ethylpyrazole-4-carbonyl)-2,7-diazaspiro[3.5]nonan-2-yl]-3-pyridyl]-3,3-dimethyl-isoindolin-1-one], the pEC50 on human CYP11B1 was 8.02.
